Results taken from article PMC6407917, “Identification of GSK3186899/DDD853651 as a Preclinical Development Candidate for the Treatment of Visceral Leishmaniasis” (Journal of Medicinal Chemistry, 2018).

How the values were obtained:
Experiment in all cases: biochemical
Parameters in all cases: species or system HEK293/K-562/placenta mixed human extract; Kinobeads chemoproteomic competition binding, quantified by TMT LC-MS/MS, dose response up to 20 uM
[1] = target: BMP2K (Homo sapiens, UniProt Q9NSY1)
[2] = target: CDC42BPA (Homo sapiens, UniProt Q5VT25)
[3] = target: CDKL5 (Homo sapiens, UniProt O76039)
[4] = target: CSK (Homo sapiens, UniProt P41240)
[5] = target: CSNK2B (Homo sapiens, UniProt P67870)
[6] = target: DSTYK (Homo sapiens, UniProt Q6XUX3)
[7] = target: DYRK1A (Homo sapiens, UniProt Q13627)
[8] = target: EPHA5 (Homo sapiens, UniProt P54756)
[9] = target: FLT4 (Homo sapiens, UniProt P35916)
[10] = target: MAP4K1 (Homo sapiens, UniProt Q92918)
[11] = target: MAP4K2 (Homo sapiens, UniProt Q12851)
[12] = target: MKNK2 (Homo sapiens, UniProt Q9HBH9)
[13] = target: NRK (Homo sapiens, UniProt Q7Z2Y5)
[14] = target: PIK3C3 (Homo sapiens, UniProt Q8NEB9)
[15] = target: PIM1 (Homo sapiens, UniProt P11309)
[16] = target: PIP4K2C (Homo sapiens, UniProt Q8TBX8)
[17] = target: PKN2 (Homo sapiens, UniProt Q16513)
[18] = target: STK17B (Homo sapiens, UniProt O94768)
[19] = target: TAOK1 (Homo sapiens, UniProt Q7L7X3)
[20] = target: TESK1 (Homo sapiens, UniProt Q15569)
[21] = target: TTK (Homo sapiens, UniProt P33981)

Measured: IC50

Sequence of TESK1 (Q15569 whole entry): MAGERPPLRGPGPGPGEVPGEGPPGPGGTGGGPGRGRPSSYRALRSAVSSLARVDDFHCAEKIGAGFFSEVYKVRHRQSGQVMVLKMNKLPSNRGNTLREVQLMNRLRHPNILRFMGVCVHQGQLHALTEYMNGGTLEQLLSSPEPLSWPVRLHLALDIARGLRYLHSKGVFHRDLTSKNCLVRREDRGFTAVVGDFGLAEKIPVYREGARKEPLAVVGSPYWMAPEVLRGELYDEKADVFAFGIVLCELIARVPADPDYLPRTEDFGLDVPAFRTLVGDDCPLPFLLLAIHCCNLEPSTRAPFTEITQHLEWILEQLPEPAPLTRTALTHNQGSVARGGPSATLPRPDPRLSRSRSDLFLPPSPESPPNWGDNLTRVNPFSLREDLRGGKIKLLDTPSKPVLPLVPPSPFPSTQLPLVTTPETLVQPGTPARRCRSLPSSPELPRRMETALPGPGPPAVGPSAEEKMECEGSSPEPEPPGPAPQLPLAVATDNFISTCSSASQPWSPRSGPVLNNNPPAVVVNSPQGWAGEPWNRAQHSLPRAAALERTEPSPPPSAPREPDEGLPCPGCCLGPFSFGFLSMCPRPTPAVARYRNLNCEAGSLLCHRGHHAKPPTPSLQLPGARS
Sequence of MAP4K1 (Q92918 whole entry): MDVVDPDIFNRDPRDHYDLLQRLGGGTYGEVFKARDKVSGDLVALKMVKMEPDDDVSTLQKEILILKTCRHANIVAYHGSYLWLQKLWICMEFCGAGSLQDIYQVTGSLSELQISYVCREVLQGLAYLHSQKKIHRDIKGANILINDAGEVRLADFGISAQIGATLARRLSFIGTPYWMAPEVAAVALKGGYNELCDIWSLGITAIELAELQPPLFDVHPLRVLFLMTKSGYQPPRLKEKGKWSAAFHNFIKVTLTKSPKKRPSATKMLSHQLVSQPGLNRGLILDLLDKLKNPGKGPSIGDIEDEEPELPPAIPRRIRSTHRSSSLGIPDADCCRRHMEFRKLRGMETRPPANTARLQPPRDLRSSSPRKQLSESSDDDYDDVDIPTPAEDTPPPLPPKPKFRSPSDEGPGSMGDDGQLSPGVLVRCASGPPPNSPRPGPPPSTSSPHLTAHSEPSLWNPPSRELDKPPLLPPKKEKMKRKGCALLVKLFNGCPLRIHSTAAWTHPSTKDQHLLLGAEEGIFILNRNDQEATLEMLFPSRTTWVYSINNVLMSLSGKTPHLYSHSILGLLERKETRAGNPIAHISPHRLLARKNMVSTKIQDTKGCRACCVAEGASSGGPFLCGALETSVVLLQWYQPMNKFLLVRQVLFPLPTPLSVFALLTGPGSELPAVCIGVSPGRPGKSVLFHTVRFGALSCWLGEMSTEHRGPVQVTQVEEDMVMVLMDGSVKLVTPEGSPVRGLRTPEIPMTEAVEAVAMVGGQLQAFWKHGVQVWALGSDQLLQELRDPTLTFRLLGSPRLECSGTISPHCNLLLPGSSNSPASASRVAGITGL
Sequence of MAP4K2 (Q12851 whole entry): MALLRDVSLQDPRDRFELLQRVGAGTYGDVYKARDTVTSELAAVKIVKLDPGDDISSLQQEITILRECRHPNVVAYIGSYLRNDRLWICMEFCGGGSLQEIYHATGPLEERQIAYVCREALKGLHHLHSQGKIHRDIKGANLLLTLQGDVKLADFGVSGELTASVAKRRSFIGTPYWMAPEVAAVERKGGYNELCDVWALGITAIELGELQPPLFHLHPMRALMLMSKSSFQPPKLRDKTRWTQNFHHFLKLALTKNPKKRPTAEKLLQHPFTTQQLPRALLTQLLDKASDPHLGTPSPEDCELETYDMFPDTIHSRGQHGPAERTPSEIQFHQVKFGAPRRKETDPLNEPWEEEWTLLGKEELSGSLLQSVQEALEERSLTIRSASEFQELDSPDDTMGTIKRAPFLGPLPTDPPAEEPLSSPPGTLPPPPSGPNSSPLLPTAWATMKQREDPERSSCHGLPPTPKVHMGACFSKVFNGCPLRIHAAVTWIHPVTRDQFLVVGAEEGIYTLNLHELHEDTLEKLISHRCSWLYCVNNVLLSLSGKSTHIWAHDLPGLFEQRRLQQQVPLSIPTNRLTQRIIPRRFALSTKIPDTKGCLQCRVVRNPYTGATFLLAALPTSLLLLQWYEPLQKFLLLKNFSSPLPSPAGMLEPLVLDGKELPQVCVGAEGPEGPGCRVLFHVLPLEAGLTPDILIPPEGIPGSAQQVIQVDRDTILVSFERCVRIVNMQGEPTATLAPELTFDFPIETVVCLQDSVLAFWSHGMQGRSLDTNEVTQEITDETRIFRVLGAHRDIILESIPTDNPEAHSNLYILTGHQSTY
Sequence of CDKL5 (O76039 whole entry): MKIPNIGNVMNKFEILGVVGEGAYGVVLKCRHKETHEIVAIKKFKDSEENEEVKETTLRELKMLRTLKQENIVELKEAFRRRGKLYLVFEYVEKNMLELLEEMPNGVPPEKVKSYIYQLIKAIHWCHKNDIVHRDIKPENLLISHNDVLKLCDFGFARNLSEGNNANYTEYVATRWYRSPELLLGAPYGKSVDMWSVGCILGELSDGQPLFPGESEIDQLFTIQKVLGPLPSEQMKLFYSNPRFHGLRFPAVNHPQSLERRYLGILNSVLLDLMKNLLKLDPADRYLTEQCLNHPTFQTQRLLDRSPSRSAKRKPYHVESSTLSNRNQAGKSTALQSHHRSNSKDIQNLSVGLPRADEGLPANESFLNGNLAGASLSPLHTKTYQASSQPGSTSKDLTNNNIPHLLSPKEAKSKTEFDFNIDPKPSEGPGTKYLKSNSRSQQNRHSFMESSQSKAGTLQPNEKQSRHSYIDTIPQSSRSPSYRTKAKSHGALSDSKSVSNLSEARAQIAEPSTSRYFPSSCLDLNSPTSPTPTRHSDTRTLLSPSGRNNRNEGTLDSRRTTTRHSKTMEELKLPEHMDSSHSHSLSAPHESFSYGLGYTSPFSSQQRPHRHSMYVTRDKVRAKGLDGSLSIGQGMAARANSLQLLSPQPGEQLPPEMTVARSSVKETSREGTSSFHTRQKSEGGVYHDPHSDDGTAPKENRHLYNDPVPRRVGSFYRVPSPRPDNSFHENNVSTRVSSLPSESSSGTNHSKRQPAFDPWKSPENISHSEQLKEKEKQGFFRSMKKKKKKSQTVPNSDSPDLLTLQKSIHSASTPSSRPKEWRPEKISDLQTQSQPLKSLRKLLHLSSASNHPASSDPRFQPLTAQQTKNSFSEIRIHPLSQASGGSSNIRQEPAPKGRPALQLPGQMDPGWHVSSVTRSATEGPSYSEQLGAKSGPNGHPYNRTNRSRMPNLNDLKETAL
Sequence of EPHA5 (P54756 whole entry): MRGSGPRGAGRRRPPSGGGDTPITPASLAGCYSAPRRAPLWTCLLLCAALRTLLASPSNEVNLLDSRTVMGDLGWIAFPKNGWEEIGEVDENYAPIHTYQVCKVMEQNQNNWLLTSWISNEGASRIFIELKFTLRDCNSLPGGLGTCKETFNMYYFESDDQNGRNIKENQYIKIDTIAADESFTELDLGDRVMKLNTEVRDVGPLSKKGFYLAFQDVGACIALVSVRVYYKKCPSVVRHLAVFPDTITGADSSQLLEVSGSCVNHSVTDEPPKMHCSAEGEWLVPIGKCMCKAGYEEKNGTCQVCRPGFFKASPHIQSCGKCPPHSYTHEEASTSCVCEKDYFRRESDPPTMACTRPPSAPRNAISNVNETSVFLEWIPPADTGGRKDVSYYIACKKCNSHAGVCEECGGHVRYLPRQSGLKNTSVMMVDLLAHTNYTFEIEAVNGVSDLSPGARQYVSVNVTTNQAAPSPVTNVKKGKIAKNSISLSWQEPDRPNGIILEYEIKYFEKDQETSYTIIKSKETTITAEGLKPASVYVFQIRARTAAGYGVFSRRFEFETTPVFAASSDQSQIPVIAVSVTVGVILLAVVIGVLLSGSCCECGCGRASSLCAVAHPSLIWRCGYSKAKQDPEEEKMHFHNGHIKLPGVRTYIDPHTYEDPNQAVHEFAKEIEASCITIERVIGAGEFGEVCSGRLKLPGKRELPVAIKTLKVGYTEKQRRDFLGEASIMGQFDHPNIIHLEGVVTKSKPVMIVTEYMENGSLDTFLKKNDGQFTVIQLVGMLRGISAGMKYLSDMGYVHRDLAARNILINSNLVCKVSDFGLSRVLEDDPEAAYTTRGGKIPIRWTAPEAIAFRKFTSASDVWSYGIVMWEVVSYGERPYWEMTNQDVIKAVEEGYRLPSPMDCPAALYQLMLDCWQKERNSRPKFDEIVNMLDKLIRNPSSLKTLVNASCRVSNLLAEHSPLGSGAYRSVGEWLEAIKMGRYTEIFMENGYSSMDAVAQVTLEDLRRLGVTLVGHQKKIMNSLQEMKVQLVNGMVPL
Sequence of PIM1 (P11309 whole entry): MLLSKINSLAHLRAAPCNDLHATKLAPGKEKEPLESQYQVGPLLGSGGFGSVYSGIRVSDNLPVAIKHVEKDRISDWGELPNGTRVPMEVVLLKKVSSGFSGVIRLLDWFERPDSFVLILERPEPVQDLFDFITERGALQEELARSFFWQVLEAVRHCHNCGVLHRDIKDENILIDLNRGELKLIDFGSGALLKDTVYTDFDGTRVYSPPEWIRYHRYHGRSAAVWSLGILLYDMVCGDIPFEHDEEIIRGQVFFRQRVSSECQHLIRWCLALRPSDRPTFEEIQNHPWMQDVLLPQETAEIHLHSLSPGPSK
Sequence of CSK (P41240 whole entry): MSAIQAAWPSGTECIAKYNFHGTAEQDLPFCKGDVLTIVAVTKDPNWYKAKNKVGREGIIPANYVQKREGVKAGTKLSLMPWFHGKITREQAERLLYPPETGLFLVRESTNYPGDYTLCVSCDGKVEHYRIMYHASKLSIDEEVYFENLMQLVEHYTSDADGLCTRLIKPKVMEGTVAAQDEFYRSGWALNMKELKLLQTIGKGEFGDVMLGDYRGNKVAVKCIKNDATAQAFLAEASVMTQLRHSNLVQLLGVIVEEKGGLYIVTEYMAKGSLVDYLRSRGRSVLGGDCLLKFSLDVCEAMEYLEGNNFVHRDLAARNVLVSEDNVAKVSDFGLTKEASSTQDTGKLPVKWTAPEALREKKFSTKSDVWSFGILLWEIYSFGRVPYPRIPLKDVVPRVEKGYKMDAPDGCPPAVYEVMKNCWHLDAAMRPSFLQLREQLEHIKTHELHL

COc1nc(N[C@H]2CC[C@H](NS(=O)(=O)CC(C)C)CC2)nc2[nH]nc(N3CCOC[C@H]3C)c12 [compound 39, N-(trans-4-((4-Methoxy-3-((R)-3-methylmorpholino)-1H-pyrazolo[3,4-d]pyrimidin-6-yl)amino)cyclohexyl)-2-methylpropane-1-sulfonamide]
≥ 20 µM: all assays above
